Reference: patent publication US11331369B2, “Endoparasitic depsipeptides” (Zoetis Services LLC, priority 2017, dated 2022)

System: microfilariae of Dirofilaria immitis
Experiment: Dirofilaria immitis, Microfilaria (DiMF) In vitro Assay
Format: cell-based
Details: 72 h, read-out: DiMF Minimum Effective Dose (MED), approximately 72 hours incubation, microfilariae assessed for survival or paralysis

SMILES | minimal effective concentration
CC(C)C[C@H]1C(=O)O[C@H](Cc2ccc(Cn3nc(C4CC4)c(N)c3C3CC3)cc2)C(=O)N(C)[C@@H](CC(C)C)C(=O)O[C@H](C)C(=O)N(C)[C@@H](CC(C)C)C(=O)O[C@H](Cc2ccccc2)C(=O)N(C)[C@@H](CC(C)C)C(=O)O[C@H](C)C(=O)N1C [Example 2-85, (3S,6R,9S,12R,15S,18R,21S,24R)-6-(4-((4-amino-3,5-dicyclopropyl-1H-pyrazol-1-yl)methyl)benzyl)-18-benzyl-3,9,15,21-tetraisobutyl-4,10,12,16,22,24-hexamethyl-1,7,13,19-tetraoxa-4,10,16,22-tetraazacyclotetracosan-2,5,8,11,14,17,20,23-octaone] | 0.01 to 0.1 µM
CC(C)C[C@H]1C(=O)O[C@H](Cc2ccc(CN3CCC(F)(F)CC3)cc2)C(=O)N(C)[C@@H](CC(C)C)C(=O)O[C@H](C)C(=O)N(C)[C@@H](CC(C)C)C(=O)O[C@H](Cc2ccc(CN3CCC(F)(F)CC3)cc2)C(=O)N(C)[C@@H](CC(C)C)C(=O)O[C@H](C)C(=O)N1C [Example 9-4, (3S,6R,9S,12R,15S,18R,21S,24R)-6,18-bis(4-((4,4-difluoropiperidin-1-yl)methyl)benzyl)-3,9,15,21-tetraisobutyl-4,10,12,16,22,24-hexamethyl-1,7,13,19-tetraoxa-4,10,16,22-tetraazacyclotetracosan-2,5,8,11,14,17,20,23-octaone] | 0.01 to 0.1 µM
CC(C)C[C@H]1C(=O)O[C@H](Cc2ccc(Cn3ccc(-c4ccccc4)n3)cc2)C(=O)N(C)[C@@H](CC(C)C)C(=O)O[C@H](C)C(=O)N(C)[C@@H](CC(C)C)C(=O)O[C@H](Cc2ccccc2)C(=O)N(C)[C@@H](CC(C)C)C(=O)O[C@H](C)C(=O)N1C [Example 2-56, (3S,6R,9S,12R,15S,18R,21S,24R)-6-benzyl-3,9,15,21-tetraisobutyl-4,10,12,16,22,24-hexamethyl-18-(4-((3-phenyl-1H-pyrazol-1-yl)methyl)benzyl)-1,7,13,19-tetraoxa-4,10,16,22-tetraazacyclotetracosan-2,5,8,11,14,17,20,23-octaone] | 0.01 to 0.1 µM
CC(C)C[C@H]1C(=O)O[C@H](Cc2ccc(Cn3nccc3C3(N)CC3)cc2)C(=O)N(C)[C@@H](CC(C)C)C(=O)O[C@H](C)C(=O)N(C)[C@@H](CC(C)C)C(=O)O[C@H](Cc2ccc(Cn3nccc3C3(N)CC3)cc2)C(=O)N(C)[C@@H](CC(C)C)C(=O)O[C@H](C)C(=O)N1C [Example 1b-218, (3S,6R,9S,12R,15S,18R,21S,24R)-6,18-bis(4-((5-(1-aminocyclopropyl)-1H-pyrazol-1-yl)methyl)benzyl)-3,9,15,21-tetraisobutyl-4,10,12,16,22,24-hexamethyl-1,7,13,19-tetraoxa-4,10,16,22-tetraazacyclotetracosan-2,5,8,11,14,17,20,23-octaone] | 0.01 to 0.1 µM
CC(C)C[C@H]1C(=O)O[C@H](Cc2cccc(Cn3cc([N+](=O)[O-])cn3)c2)C(=O)N(C)[C@@H](CC(C)C)C(=O)O[C@H](C)C(=O)N(C)[C@@H](CC(C)C)C(=O)O[C@H](Cc2ccccc2)C(=O)N(C)[C@@H](CC(C)C)C(=O)O[C@H](C)C(=O)N1C [Example 5-2, (3S,6R,9S,12R,15S,18R,21S,24R)-6-benzyl-3,9,15,21-tetraisobutyl-4,10,12,16,22,24-hexamethyl-18-(3-((4-nitro-1H-pyrazol-1-yl)methyl)benzyl)-1,7,13,19-tetraoxa-4,10,16,22-tetraazacyclotetracosan-2,5,8, 11,14,17,20,23-octaone] | 0.001 to 0.01 µM
CC(C)C[C@H]1C(=O)O[C@H](Cc2ccc(Cn3cc(/C(N)=N/O)cn3)cc2)C(=O)N(C)[C@@H](CC(C)C)C(=O)O[C@H](C)C(=O)N(C)[C@@H](CC(C)C)C(=O)O[C@H](Cc2ccc(Cn3cc(C(N)=NO)cn3)cc2)C(=O)N(C)[C@@H](CC(C)C)C(=O)O[C@H](C)C(=O)N1C [Example 1b-22, N′-hydroxy-1-[[4-[[(2R,5S,8R,11S,14R,17S,20R,23S)-14-[[4-[[4-[(Z)—N′-hydroxycarbamimidoyl]pyrazol-1-yl]methyl]phenyl]methyl]-5,11,17,23-tetraisobutyl-4,8,10,16,20,22-hexamethyl-3,6,9,12,15,18,21,24-octaoxo-1,7,13,19-tetraoxa-4,10,16,22-tetrazacyclotetracos-2-yl]methyl]phenyl]methyl]pyrazole-4-carboxamidine] | 0.01 to 0.1 µM
Cc1ncn(Cc2ccc(C[C@H]3OC(=O)[C@H](CC(C)C)N(C)C(=O)[C@@H](C)OC(=O)[C@H](CC(C)C)N(C)C(=O)[C@@H](Cc4ccccc4)OC(=O)[C@H](CC(C)C)N(C)C(=O)[C@@H](C)OC(=O)[C@H](CC(C)C)N(C)C3=O)cc2)c1C [Example 8-11, (3S,6R,9S,12R,15S,18R,21S,24R)-6-benzyl-18-(4-((4,5-dimethyl-1H-imidazol-1-yl)methyl)benzyl)-3,9,15,21-tetraisobutyl-4,10,12,16,22,24-hexamethyl-1,7,13,19-tetraoxa-4,10,16,22-tetraazacyclotetracosan-2,5,8,11,14,17,20,23-octaone] | 0.01 to 0.1 µM
Cc1cnn(Cc2ccc(C[C@H]3OC(=O)[C@H](CC(C)C)N(C)C(=O)[C@@H](C)OC(=O)[C@H](CC(C)C)N(C)C(=O)[C@@H](Cc4ccc(Cn5nc(C)c(S(=O)(=O)N6CCCC6)c5C)cc4)OC(=O)[C@H](CC(C)C)N(C)C(=O)[C@@H](C)OC(=O)[C@H](CC(C)C)N(C)C3=O)cc2)c1 [Example 1a-23, (3S,6R,9S,12R,15S,18R,21S,24R)-6-(4-((3,5-dimethyl-4-(pyrrolidin-1-ylsulfonyl)-1H-pyrazol-1-yl)methyl)benzyl)-3,9,15,21-tetraisobutyl-4,10,12,16,22,24-hexamethyl-18-(4-((4-methyl-1H-pyrazol-1-yl)methyl)benzyl)-1,7,13,19-tetraoxa-4,10,16,22-tetraazacyclotetracosan-2,5,8,11,14,17,20,23-octaone] | 0.01 to 0.1 µM
CC(C)C[C@H]1C(=O)O[C@H](Cc2ccc(Cn3cc(-c4ccc(Cl)cc4)cn3)cc2)C(=O)N(C)[C@@H](CC(C)C)C(=O)O[C@H](C)C(=O)N(C)[C@@H](CC(C)C)C(=O)O[C@H](Cc2ccc(Cn3cccn3)cc2)C(=O)N(C)[C@@H](CC(C)C)C(=O)O[C@H](C)C(=O)N1C [Example 1a-18, (3S,6R,9S,12R,15S,18R,21S,24R)-6-(4-((1H-pyrazol-1-yl)methyl)benzyl)-18-(4-((4-(4-chlorophenyl)-1H-pyrazol-1-yl)methyl)benzyl)-3,9,15,21-tetraisobutyl-4,10,12,16,22,24-hexamethyl-1,7,13,19-tetraoxa-4,10,16,22-tetraazacyclotetracosan-2,5,8,11,14,17,20,23-octaone] | 0.01 to 0.1 µM
CC(C)C[C@H]1C(=O)O[C@H](Cc2ccc(Cn3ccc(I)n3)cc2)C(=O)N(C)[C@@H](CC(C)C)C(=O)O[C@H](C)C(=O)N(C)[C@@H](CC(C)C)C(=O)O[C@H](Cc2ccc(Cn3ccc(I)n3)cc2)C(=O)N(C)[C@@H](CC(C)C)C(=O)O[C@H](C)C(=O)N1C [Example 1b-64, (3S,6R,9S,12R,15S,18R,21S,24R)-6,18-bis(4-((3-iodo-1H-pyrazol-1-yl)methyl)benzyl)-3,9,15,21-tetraisobutyl-4,10,12,16,22,24-hexamethyl-1,7,13,19-tetraoxa-4,10,16,22-tetraazacyclotetracosan-2,5,8,11,14,17,20,23-octaone] | 0.01 to 0.1 µM
CC(C)C[C@H]1C(=O)O[C@H](Cc2ccc(CN3CCCOC3=O)cc2)C(=O)N(C)[C@@H](CC(C)C)C(=O)O[C@H](C)C(=O)N(C)[C@@H](CC(C)C)C(=O)O[C@H](Cc2ccccc2)C(=O)N(C)[C@@H](CC(C)C)C(=O)O[C@H](C)C(=O)N1C [Example 10-25, (3S,6R,9S,12R,15S,18R,21S,24R)-6-benzyl-3,9,15,21-tetraisobutyl-4,10,12,16,22,24-hexamethyl-18-(4-((2-oxo-1,3-oxazinan-3-yl)methyl)benzyl)-1,7,13,19-tetraoxa-4,10,16,22-tetraazacyclotetracosan-2,5,8,11,14,17,20,23-octaone] | 0.01 to 0.1 µM
CC(C)C[C@H]1C(=O)O[C@H](Cc2ccc(Cn3ccc(C(F)(F)F)n3)cc2)C(=O)N(C)[C@@H](CC(C)C)C(=O)O[C@H](C)C(=O)N(C)[C@@H](CC(C)C)C(=O)O[C@H](Cc2ccccc2)C(=O)N(C)[C@@H](CC(C)C)C(=O)O[C@H](C)C(=O)N1C [Example 2-58, (3S,6R,9S,12R,15S,18R,21S,24R)-6-benzyl-3,9,15,21-tetraisobutyl-4,10,12,16,22,24-hexamethyl-18-(4-((3-(trifluoromethyl)-1H-pyrazol-1-yl)methyl)benzyl)-1,7,13,19-tetraoxa-4,10,16,22-tetraazacyclotetracosan-2,5,8,11,14,17,20,23-octaone] | 0.01 to 0.1 µM
Cc1nn(Cc2ccc(C[C@H]3OC(=O)[C@H](CC(C)C)N(C)C(=O)[C@@H](C)OC(=O)[C@H](CC(C)C)N(C)C(=O)[C@@H](Cc4ccccc4)OC(=O)[C@H](CC(C)C)N(C)C(=O)[C@@H](C)OC(=O)[C@H](CC(C)C)N(C)C3=O)cc2)c(C)c1C(F)(F)F [Example 2-81, (3S,6R,9S,12R,15S,18R,21S,24R)-6-benzyl-18-(4-((3,5-dimethyl-4-(trifluoromethyl)-1H-pyrazol-1-yl)methyl)benzyl)-3,9,15,21-tetraisobutyl-4,10,12,16,22,24-hexamethyl-1,7,13,19-tetraoxa-4,10,16,22-tetraazacyclotetracosan-2,5,8,11,14,17,20,23-octaone] | 0.01 to 0.1 µM
CC(C)C[C@H]1C(=O)O[C@H](Cc2ccc(Cn3cc(C4=CCCC4)cn3)cc2)C(=O)N(C)[C@@H](CC(C)C)C(=O)O[C@H](C)C(=O)N(C)[C@@H](CC(C)C)C(=O)O[C@H](Cc2ccccc2)C(=O)N(C)[C@@H](CC(C)C)C(=O)O[C@H](C)C(=O)N1C [Example 2-61, (3S,6R,9S,12R,15S,18R,21S,24R)-6-benzyl-18-(4-((4-(cyclopent-1-en-1-yl)-1H-pyrazol-1-yl)methyl)benzyl)-3,9,15,21-tetraisobutyl-4,10,12,16,22,24-hexamethyl-1,7,13,19-tetraoxa-4,10,16,22-tetraazacyclotetracosan-2,5,8,11,14,17,20,23-octaone] | 0.01 to 0.1 µM
